Assay results published in ChEMBL document CHEMBL5131539, “Insights on JAK2 Modulation by Potent, Selective, and Cell-Permeable Pseudokinase-Domain Ligands” (J Med Chem, 2022).
Calls of active or inactive are those of the source. The calls are words filed in the database; no cut-off is given here.

Experiments:
[1] = target: T1, Tyrosine-protein kinase JAK2 (Homo sapiens, UniProt O60674); assay: biochemical
Description: Binding affinity to JAK2 JH2 (unknown origin) expressed in baculovirus infected Sf9 cells assessed as dissociation constant measured upto 30 mins in presence of tracer by competitive fluorescence polarization assay

[2] = target: T1, Tyrosine-protein kinase JAK2; assay: Inhibition of JAK2 JH2 (unknown origin) expressed in baculovirus infected Sf9 cells at 50 uM incubated upto 30 mins in the presence of tracer by competitive fluorescence polarization analysis relative to control
[3] = pampa, pH 7.4, 18 h
Description: Permeability of the compound in PBS buffer at pH 7.4 measured after 18 hrs by UV plate reader based PAMPA assay

[4] = target: T1, Tyrosine-protein kinase JAK2; assay: biochemical; remark: listed apart in the source
Description: Binding affinity to wild type JAK2 JH1 (unknown origin) expressed in baculovirus infected Sf9 cells assessed as dissociation constant measured upto 30 mins in presence of tracer by competitive fluorescence polarization assay

[5] = target: Tyrosine-protein kinase JAK2 (Homo sapiens, UniProt O60674, V617F); assay: biochemical
Sequence of Tyrosine-protein kinase JAK2 (Homo sapiens, UniProt O60674, V617F) (O60674 whole entry V617F): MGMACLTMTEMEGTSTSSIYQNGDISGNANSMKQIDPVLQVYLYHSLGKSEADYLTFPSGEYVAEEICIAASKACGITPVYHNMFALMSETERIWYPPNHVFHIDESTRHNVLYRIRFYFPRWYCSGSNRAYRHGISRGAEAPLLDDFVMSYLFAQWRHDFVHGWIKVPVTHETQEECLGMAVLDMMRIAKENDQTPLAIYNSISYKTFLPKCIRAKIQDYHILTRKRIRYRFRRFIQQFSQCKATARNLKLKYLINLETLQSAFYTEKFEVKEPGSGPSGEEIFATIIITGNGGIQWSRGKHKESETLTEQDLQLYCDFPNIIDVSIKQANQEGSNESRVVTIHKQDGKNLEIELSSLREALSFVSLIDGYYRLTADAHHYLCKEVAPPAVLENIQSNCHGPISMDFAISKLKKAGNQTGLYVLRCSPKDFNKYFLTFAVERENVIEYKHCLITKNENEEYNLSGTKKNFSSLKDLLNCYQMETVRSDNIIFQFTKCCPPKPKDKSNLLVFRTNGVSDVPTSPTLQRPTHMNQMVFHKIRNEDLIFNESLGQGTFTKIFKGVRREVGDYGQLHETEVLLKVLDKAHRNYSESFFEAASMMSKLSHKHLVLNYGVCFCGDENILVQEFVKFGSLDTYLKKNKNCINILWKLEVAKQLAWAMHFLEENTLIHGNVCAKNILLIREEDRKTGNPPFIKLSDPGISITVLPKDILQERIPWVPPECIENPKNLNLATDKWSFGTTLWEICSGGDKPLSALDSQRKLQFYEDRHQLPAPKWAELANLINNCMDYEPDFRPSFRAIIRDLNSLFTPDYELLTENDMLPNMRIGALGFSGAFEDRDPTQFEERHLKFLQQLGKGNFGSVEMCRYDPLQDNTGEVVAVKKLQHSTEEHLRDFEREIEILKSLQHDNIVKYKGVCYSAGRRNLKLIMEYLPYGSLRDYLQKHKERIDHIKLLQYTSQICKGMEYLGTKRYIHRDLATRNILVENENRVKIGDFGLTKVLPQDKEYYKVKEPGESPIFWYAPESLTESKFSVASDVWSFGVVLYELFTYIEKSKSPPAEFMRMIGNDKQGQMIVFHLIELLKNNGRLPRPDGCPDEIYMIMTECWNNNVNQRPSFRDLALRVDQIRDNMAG
Description: Binding affinity to JAK2 JH2 V617F mutant (unknown origin) expressed in baculovirus infected Sf9 cells assessed as dissociation constant measured upto 30 mins in presence of tracer by competitive fluorescence polarization assay

[6] = system: Tyrosine-protein kinase JAK2 (Homo sapiens), O60674 [V617F]; assay: Inhibition of JAK2 JH2 V617F mutant in human HEL cells assessed as reduction in STAT5 phosphorylation at 20 uM measured after 3 hrs by Western blotting analysis; format: cell-based
Sequence of Tyrosine-protein kinase JAK2 (Homo sapiens), O60674 [V617F] (O60674 whole entry V617F): as above

[7] = target: T1, Tyrosine-protein kinase JAK2; assay: Inhibition of wild type JAK2 JH2 in human TF-1 cells assessed as reduction in STAT5 phosphorylation at 10 to 20 uM incubated for 1 hrs by Western blotting analysis; format: cell-based; details: dose 10-20 µM
[8] = system: Tyrosine-protein kinase JAK2 (Homo sapiens), O60674 [V617F]; assay: Inhibition of JAK2 JH2 V617F mutant in human HEL cells assessed as reduction in STAT5 phosphorylation at 10 to 20 uM incubated for 1 hrs by Western blotting analysis; format: cell-based; details: dose 10-20 µM

T1 sequence (O60674 whole entry): as the sequence (O60674 whole entry V617F) above, with F617V counted along it

Compound | Kd [1] | permeability [3] | Kd [4] | Kd [5] | further results
Nc1nc(Nc2ccc(S(N)(=O)=O)cc2)nn1C(=O)Nc1ccc(-c2ccc(C(=O)O)cc2)cc1 | 155 nM | – | – | – | –
Nc1nc(Nc2ccc(S(N)(=O)=O)cc2)nn1C(=O)Nc1ccc(-c2ccccc2)cc1 | – | – | – | – | inhibition [2]: 30.5%
Nc1nc(Nc2ccc(S(N)(=O)=O)cc2)nn1C(=O)Nc1ccc(-c2cccc(C(=O)O)c2)cc1 | 129 nM | 0.015 10^-6 cm/s | – | – | –
Nc1nc(Nc2ccc(S(N)(=O)=O)cc2)nn1C(=O)Nc1ccc(-c2cccc(C(=O)O)n2)cc1 | 934 nM | – | – | – | –
CNC(=O)c1ccc(Nc2nc(N)n(C(=O)Nc3ccc(-c4ccc(OCc5ccccc5)c(C(=O)O)c4)cc3)n2)cc1 | – | 0.24 10^-6 cm/s | 6.81 µM | 43 nM | inhibition [6]: Active; inhibition [7]: Active; inhibition [8]: Active
COC(=O)c1cccc(-c2ccc(NC(=O)n3nc(Nc4ccc(S(N)(=O)=O)cc4)nc3N)cc2)c1 | – | 0.09 10^-6 cm/s | – | – | inhibition [2]: 27%
Nc1nc(Nc2ccc(S(N)(=O)=O)cc2)nn1C(=O)Nc1ccc(-c2ccnc(C(=O)O)c2)cc1 | 394 nM | – | 8.1 µM | 131 nM | –
Nc1nc(Nc2ccc(S(N)(=O)=O)cc2)nn1C(=O)Nc1ccc(-c2cncc(C(=O)O)c2)cc1 | 652 nM | – | – | – | –
Nc1nc(Nc2ccc(S(N)(=O)=O)cc2)nn1C(=O)Nc1ccc(-c2cncc(C(=O)O)n2)cc1 | 1400 nM | – | – | – | –
Nc1nc(Nc2ccc(S(N)(=O)=O)cc2)nn1C(=O)Nc1ccc(-c2cc(OCc3ccccc3)cc(C(=O)O)c2)cc1 | 75 nM | 1.15 10^-6 cm/s | 3.36 µM | 62 nM | –
CNC(=O)c1ccc(Nc2nc(N)n(C(=O)Nc3ccc(-c4cc(OCc5ccccc5)cc(C(=O)O)c4)cc3)n2)cc1 | 44 nM | 0.971 10^-6 cm/s | 5.91 µM | 50 nM | –
